From US20130303500A1, “COMPOUNDS AND METHODS FOR TREATING NEOPLASIA” (Medexis S.A., priority 2010, published 2013)

Experiments:
[1] = test system: 7 different cell lines (lung, ovarian, prostate, CNS, breast, colon); experiment: SRB assays across 7 cell lines; type: cell-based, human; conditions: for viability and/or cell proliferation of cell lines: cell lines representative of lung, breast, CNS, prostate, ovarian, colon and renal neoplasias
Experimental: (§1) Sulforhodamine B (SRB) assays were performed according to standard National Cancer Institute Guidelines. Briefly, human tumor cells from different cancer panels were seeded into 96 well plates in […] (plating densities ranging from 5-40,000 cells/well depending on the doubling time of individual cell lines) in serum-containing media for twenty-four hours prior to the addition of the compounds to be assayed. After 24 hours, one plate of each cell line was fixed in situ with trichloroacetic acid (TCA). The fixed slides were used to determine the cell population for each cell line at the time of drug addition (Tz). Each compound to be tested was solubilized in dimethyl sulfoxide (DMSO) and the desired concentration was then added to the medium and diluted serially 1:10 to provide a total of five or ten drug concentrations plus control (in a final volume of 200 μL). The starting dose before any dilution was 100 uM for all compounds.
(§2) Following drug addition, each culture was incubated for forty-eight hours. The assay was terminated with the addition of cold TCA. The supernatant was discarded, and the plates were washed with tap water and air dried. SRB solution was then added to each well. After staining, the bound stain was solubilized and the absorbance was read on an automated plate reader at a wavelength of 515 nm.
(§3) Using the absorbance measurements [time zero, (Tz), control growth, (C), and test growth in the presence of drug at the ten concentration levels (Ti)], the percentage growth was calculated at each of the drug concentrations levels. Percentage growth inhibition was calculated as:
(§4) [(Ti−Tz)/(C−Tz)]×100 for concentrations for which Ti>/=Tz
(§5) [(Ti−Tz)/Tz]×100 for concentrations for which Ti<Tz.
(§6) Three dose response parameters were calculated for each experimental agent. Growth inhibition of 50% (GI50) was calculated from [(Ti−Tz)/(C−Tz)]×100=50, which was the drug concentration resulting in a 50% reduction in the net protein increase (as measured by SRB staining) in control cells during the drug. The drug concentration resulting in total growth inhibition (TGI) was calculated from Ti=Tz. The LC50 (concentration of drug resulting in a 50% reduction in the measured protein at the end of the drug treatment as compared to that at the beginning) indicating a net loss of cells following treatment was calculated from [(Ti−Tz)/Tz]×100=−50.
(§7) Values were calculated for each of these three parameters when the level of activity was reached; however, if the effect was not reached or was exceeded, the value for that parameter was expressed as greater or less than the maximum or minimum concentration tested.
SRB provides a colorimetric measure of a compound's anti-cancer activity. SRB assays were performed with compounds of the invention in 7 different cell lines, which represent six different tumor panels (lung, ovarian, prostate, CNS, breast, colon).

[2] = test system: PC3 (Prostate) cells; experiment: Sulforhodamine B (SRB) assay, PC3; type: cell-based; conditions: Homo sapiens, Prostate cell, 48 h; for CC50: read-out: LC50; for GI50 / IC (TGI): PC3 Prostate, SRB
Experimental: as §1, §2, §3, §4, §5, §6, §7

[3] = test system: DU145 (Prostate) cells; experiment: MTT cell proliferation/viability assay, DU145; type: cell-based; conditions: Homo sapiens, DU-145, 72 h
Experimental: Cell proliferation/viability was assessed by the MTT [3-(4,5-dimethylthiazol-2-yl)-2,5-diphenyltetrazolium bromide] assay, which is commercially available (Sigma, St. Louis, Mo.). Cells were cultured in 96-well plates for twenty-four hours (7-10.000 cells/well) and incubated with various concentrations of the different compounds—as indicated in the Figures—in serum-containing medium (or left untreated) for seventy-two hours. At the end of incubation, the medium was aspirated and MTT dissolved in RPMI 1640 w/o phenol red was added to each well to a final concentration of 0.25 mg/ml. After four hours incubation in the dark (37° C., 5% CO2) the supernatant was discarded. The converted dye (blue formazan crystals) was solubilized by adding 200 μl dimethylsulfoxide to each well. Absorbance was measured at 550 nm with reference at 655 nm using a spectrophotometer with the respective filters. All assays were performed in triplicate.
The effect of the different compounds on the proliferation and viability of two cancer cell lines (DU145/prostate and CAKI/renal) was tested through quantitative (4,5-dimethylthiazol-2-yl)-2,5-diphenyltetrazolium bromide (MTT) assays.

[4] = test system: SF268 (CNS) cells; experiment: Sulforhodamine B (SRB) assay, SF268; type: cell-based; conditions: Homo sapiens; for CC50: SF-268, 48 h, read-out: LC50; for GI50 / IC (TGI): SF-268, SF268 CNS, SRB, 48 h
Experimental: as §1, §2, §3, §4, §5, §6, §7

[5] = target: Na+/K+-ATPase (Adenosine 5′-Triphosphatase isolated from porcine cerebral cortex); experiment: Na+/K+-ATPase inhibitory activity, colorimetric Adenosine 5′-Triphosphatase Enzymatic Assay (Sigma); type: biochemical; conditions: enzyme from porcine cerebral cortex, 0.5 units/ml
Experimental: The compound inhibitory effect on ATPase activity was assessed in vitro using the colorimetric Adenosine 5′-Triphosphatase Enzymatic Assay of Sigma (St. Louis, Mo.) according to the manufacturer's instructions. This assay utilizes Adenosine 5′-Triphosphatase isolated from porcine cerebral cortex. Each reaction was performed in a final volume of […] using 0.5 units/ml enzyme in the presence of the different inhibitors. […] IC50 values were determined using the Origin® program software (OriginLab, Northampton, Mass.).

[6] = test system: A549 (Lung) cells; experiment: Sulforhodamine B (SRB) assay, A549; type: cell-based; conditions: Homo sapiens; for CC50: A549, 48 h, read-out: LC50; for GI50 / IC (TGI): A549 Lung, SRB, 48 h
Experimental: as §1, §2, §3, §4, §5, §6, §7

[7] = test system: MCF7 (Breast) cells; experiment: Sulforhodamine B (SRB) assay, MCF7; type: cell-based, human; conditions: for CC50 / GI50: Homo sapiens; for CC50: MCF7, 48 h, read-out: LC50; for GI50 / TGI: MCF7 Breast, SRB, 48 h
Experimental: as §1, §2, §3, §4, §5, §6, §7

[8] = test system: H460 (Lung) cells; experiment: Sulforhodamine B (SRB) assay, H460; type: cell-based, human; conditions: for TGI / GI50: H460 Lung, SRB, 48 h; for CC50 / GI50: Homo sapiens; for CC50: NCI-H460, 48 h, read-out: LC50; for GI50: NCI-H460
Experimental: as §1, §2, §3, §4, §5, §6, §7

[9] = test system: HCT116 (Colon) cells; experiment: Sulforhodamine B (SRB) assay, HCT116; type: cell-based, human; conditions: for CC50 / GI50: Homo sapiens; for CC50: HCT-116, 48 h, read-out: LC50; for GI50: HCT-116
Experimental: as §1, §2, §3, §4, §5, §6, §7

[10] = test system: NCI-ADR-RES (Ovarian) cells; experiment: Sulforhodamine B (SRB) assay, NCI-ADR-RES (multidrug resistant); type: cell-based, human; conditions: 48 h; for CC50 / GI50: Homo sapiens; for CC50: NCI/ADR-RES, read-out: LC50
Experimental: as §1, §2, §3, §4, §5, §6, §7

| SMILES | viability and/or cell proliferation of cell lines [1] | CC50 [2] | GI50 [2] | IC50 [3] | CC50 [4] | GI50 [4] | IC (TGI) [4] | IC50 [5] | CC50 [6] | GI50 [6] | CC50 [7] | GI50 [7] | TGI [7] | TGI [8] | CC50 [8] | GI50 [8] | IC (TGI) [6] | CC50 [9] | GI50 ([9]; HCT116 Colon, SRB, 48 h) | IC (TGI) [2] | also measured |
| --- | --- | --- | --- | --- | --- | --- | --- | --- | --- | --- | --- | --- | --- | --- | --- | --- | --- | --- | --- | --- | --- |
| C[C@]12CCC(=NO[C@H]3CCNC3)C(c3ccccc3)C1CCC1C2CC[C@]2(C)C(=O)CCC12 (stereo partly drawn) [Compound 21, (10R,13S)-10,13-dimethyl-4-phenyl-3-((S)-pyrrolidin-3-yloxyimino)-tetradecahydro-2H-cyclopenta[a]phenanthren-17(14H)-one] | reduced the viability and/or cell proliferation | 49.1 µM | 4.46 µM | 13.5 µM | 57.2 µM | 4.16 µM | 8450 µM | 19.3 µM | 45.3 µM | 4.41 µM |  |  |  |  |  |  |  |  |  |  | GI50 action in most cell lines ([1]; SRB, most cell lines): single-digit micromolar |
| C[C@]12CCC3C(CC(=O)[C@H]4CC(=NO[C@H]5CCNC5)CC[C@]34CO)C1CCC2=O (stereo partly drawn) [Compound 28, (5S,10S,13S)-10-(hydroxymethyl)-13-methyl-3-((S)-pyrrolidin-3-yloxyimino)-tetradecahydro-14H-cyclopenta[a]phenanthrene-6,17-dione] | reduced the viability and/or cell proliferation | 157 µM | 53.5 µM | 87 µM | > 100 µM | 63.8 µM | > 100 µM | 12.9 µM | > 100 µM | 62.6 µM | > 100 µM | 76.5 µM | >100 µM | >100 µM | > 100 µM | 57.6 µM | > 100 µM |  |  |  |  |
| CC1CC2C(CC[C@]3(C)C(=O)C(F)CC23)[C@@]2(C)CCC(=NOC3CCNC3)C=C12 (some centres unmarked) [Compound 86, 16-Fluoro-6,10,13-trimethyl-1,6,7,8,9,10,11,12,13,14,15,16-dodecahydro-2H-cyclopenta[a]phenanthrene-3,17-dione 3-(O-pyrrolidin-3-yl-oxime)] | reduced the viability and/or cell proliferation | 72.4 µM | 5.37 µM |  | 8.11 µM | 1.86 µM | 4980 µM |  | 8.05 µM | 2.45 µM | 59.3 µM | 4.35 µM |  |  | 8.07 µM | 2.57 µM | 5250 µM | 58.8 µM | 3.71 µM | 9780 µM | CC50 [10]: 48.1 µM; GI50 ([10]; NCI-ADR-RES Ovarian, SRB): 4.13 µM |
| CON=C1CC2C(CC[C@]3(C)C(=O)CCC23)[C@@]2(CO)CCC(=NOC3CCNC3)CC12 (stereo in doubt) [Compound 30, (5S,10S,13S)-10-(hydroxymethyl)-6-methoxy-imino-13-methyl-3-((S)-pyrrolidin-3-yloxyimino)-tetradecahydro-14H-cyclopenta[a]phenanthrene-17-one] |  | 75.2 µM | 7.71 µM | 6.7 µM | 78.4 µM | 5.62 µM | 25800 µM |  | 29.6 µM | 4.07 µM |  |  |  |  |  |  |  |  |  | 36700 µM |  |
| C=C1CC2C(CC[C@]3(C)C(=O)C(F)CC23)[C@@]2(C)CCC(=NOC3CCNC3)CC12 (stereo partly drawn) [Compound 6, (5S,10R,13S,16R)-16a-fluoro-6-methylene-10,13-dimethyl-3-((R)-pyrrolidin-3-yloxyimino)-tetradecahydro-2H-cyclopenta[a]phenanthren-17(14H)-one] | reduced the viability and/or cell proliferation | 1.24 µM | 0.003 µM |  | 0.071 µM | < 0.001 µM | 0.02 µM |  | 0.053 µM | 0.005 µM | 1.28 µM | 0.009 µM | 0.082 µM | 0.008 µM | 0.053 µM | 0.003 µM | 0.008 µM | 0.728 µM | 0.009 µM | 0.055 µM | TGI ([9]; HCT116 Colon, SRB, 48 h): 0.088 µM; CC50 ([1]; Homo sapiens, read-out: LC50 values): < 1 µM; GI50 ([1]; Homo sapiens, SRB, average over cell lines): < 1 µM; anti-cancer activity in SRB assays ([1]; multiple cell lines): best activity; CC50 [10]: 0.079 µM; GI50 ([10]; NCI-ADR-RES Ovarian, SRB): 0.018 µM; TGI ([10]; NCI-ADR-RES Ovarian, SRB): 0.049 µM |
